From the supplement of paper PMC11061612

How the values were obtained:
SN-38 = compound: CCc1c2c(nc3ccc(O)cc13)-c1cc3c(c(=O)n1C2)COC(=O)[C@]3(O)CC [SN-38]; conditions: max 0.3 µM
Summary of the method: (§1)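 Following 24 hours at 37°C and 5% CO2, cancer cell lines in 1536-well plates with 7.5 μl DMEM/F12 or RPMI and 10% FBS were dosed for 72 hours, final DMSO typically being 0.2%. CellTiter-Glo 2.0 luminescence, scaled between blank-well and DMSO-well means, gave the viability readout. Dose responses were fitted to a two-parameter logistic curve with a non-linear mixed effects model, and the single-agent IC50 was derived from this fit.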

AZD1390 = compound: CC(C)n1c(=O)n(C)c2cnc3cc(F)c(-c4ccc(OCCCN5CCCCC5)nc4)cc3c21 [AZD1390]; conditions: max 0.3 µM
Summary of the method: as §1

Taselisib = compound: Cc1nc(-c2cn3c(n2)-c2ccc(-c4cnn(C(C)(C)C(N)=O)c4)cc2OCC3)n(C(C)C)n1 [Taselisib]; conditions: max 10 µM
Summary of the method: as §1

AZD0156 = compound: CN(C)CCCOc1ccc(-c2ccc3ncc4c(c3c2)n(C2CCOCC2)c(=O)n4C)cn1 [AZD0156]; conditions: max 3 µM
Summary of the method: as §1

Dasatinib = compound: CC1=C(C(=CC=C1)Cl)NC(=O)C2=CN=C(S2)NC3=CC(=NC(=N3)C)N4CCN(CC4)CCO [Dasatinib]; conditions: max 2 µM
Summary of the method: as §1

AZD8186 = compound: C[C@@H](Nc1cc(F)cc(F)c1)c1cc(C(=O)N(C)C)cc2c(=O)cc(N3CCOCC3)oc12 [AZD8186]; conditions: max 3 µM
Summary of the method: as §1

AZD5153 = compound: COc1nnc2ccc(N3CCC(c4ccc(OCCN5CCN(C)C(=O)[C@H]5C)cc4)CC3)nn12 [AZD5153]; conditions: max 1 µM
Summary of the method: as §1

Prexasertib = compound: COc1cccc(OCCCN)c1-c1cc(Nc2cnc(C#N)cn2)n[nH]1 [Prexasertib]; conditions: max 1 µM
Summary of the method: as §1

Alisertib = compound: COc1cc(Nc2ncc3c(n2)-c2ccc(Cl)cc2C(c2c(F)cccc2OC)=NC3)ccc1C(=O)O [Alisertib]; conditions: max 10 µM
Summary of the method: as §1

AZD5991 = compound: Cc1c2c(nn1C)CSCc1cc(n(C)n1)CSc1cc(c3ccccc3c1)OCCCc1c(C(=O)O)n(C)c3c-2c(Cl)ccc13 [AZD5991]; conditions: max 1 µM
Summary of the method: as §1

Lapatinib = compound: CS(=O)(=O)CCNCc1ccc(-c2ccc3ncnc(Nc4ccc(OCc5cccc(F)c5)c(Cl)c4)c3c2)o1 [Lapatinib]; conditions: max 10 µM
Summary of the method: as §1

SG3199 = compound: CC1=CN2[C@@H](C1)C=NC3=CC(=C(C=C3C2=O)OC)OCCCCCOC4=C(C=C5C(=C4)N=C[C@@H]6CC(=CN6C5=O)C)OC [SG3199]; conditions: max 0.001 µM
Summary of the method: as §1

AZD1775 = compound: C=CCn1c(=O)c2cnc(Nc3ccc(N4CCN(C)CC4)cc3)nc2n1-c1cccc(C(C)(C)O)n1 [AZD1775]; conditions: max 3 µM
Summary of the method: as §1

Palbociclib = compound: CC(=O)c1c(C)c2cnc(Nc3ccc(N4CCNCC4)cn3)nc2n(C2CCCC2)c1=O [Palbociclib]; conditions: max 10 µM
Summary of the method: as §1

Crizotinib = compound: C[C@@H](Oc1cc(-c2cnn(C3CCNCC3)c2)cnc1N)c1c(Cl)ccc(F)c1Cl [Crizotinib]; conditions: max 10 µM
Summary of the method: as §1

Gefitinib = compound: COc1cc2ncnc(Nc3ccc(F)c(Cl)c3)c2cc1OCCCN1CCOCC1 [Gefitinib]; conditions: max 10 µM
Summary of the method: as §1

Trametinib = compound: CC(=O)Nc1cccc(-n2c(=O)n(C3CC3)c(=O)c3c(Nc4ccc(I)cc4F)n(C)c(=O)c(C)c32)c1 [Trametinib]; conditions: max 1 µM
Summary of the method: as §1

Savolitinib = compound: C[C@@H](c1ccc2nccn2c1)n1nnc2ncc(-c3cnn(C)c3)nc21 [Savolitinib]; conditions: max 1 µM
Summary of the method: as §1

AZD4320 = compound: CN(CC[C@H](CSC1=CC=CC=C1)NC2=C(C=C(C=C2)S(=O)(=O)NC(=O)C3=CC=C(C=C3)N4CCC(CC4)[C@H](C5=CC=CC=C5C6=CC=C(C=C6)Cl)O)S(=O)(=O)C(F)(F)F)CCO [AZD4320]; conditions: max 1 µM
Summary of the method: as §1

AZD7648 = compound: Cc1cc2ncnn2cc1Nc1ncc2c(n1)n(C1CCOCC1)c(=O)n2C [AZD7648]; conditions: max 10 µM
Summary of the method: as §1

AZD2811 = compound: CCN(CCO)CCCOc1ccc2c(Nc3cc(CC(=O)Nc4cccc(F)c4)[nH]n3)ncnc2c1 [AZD2811]; conditions: max 1 µM
Summary of the method: as §1

Venetoclax = compound: CC1(C)CCC(CN2CCN(c3ccc(C(=O)NS(=O)(=O)c4ccc(NCC5CCOCC5)c([N+](=O)[O-])c4)c(Oc4cnc5[nH]ccc5c4)c3)CC2)=C(c2ccc(Cl)cc2)C1 [Venetoclax]; conditions: max 1 µM
Summary of the method: as §1

MK-2206 = compound: NC1(c2ccc(-c3nc4ccn5c(=O)[nH]nc5c4cc3-c3ccccc3)cc2)CCC1 [MK-2206]; conditions: max 10 µM
Summary of the method: as §1

AZD6738 = compound: C[C@@H]1COCCN1C2=NC(=NC(=C2)C3(CC3)[S@](=N)(=O)C)C4=C5C=CNC5=NC=C4 [AZD6738]; conditions: max 10 µM
Summary of the method: as §1

Doxorubicin = compound: COc1cccc2c1C(=O)c1c(O)c3c(c(O)c1C2=O)C[C@@](O)(C(=O)CO)C[C@@H]3O[C@H]1C[C@H](N)[C@H](O)[C@H](C)O1 [Doxorubicin]; conditions: max 1 µM
Summary of the method: as §1

Capivasertib = compound: C1CN(CCC1(C(=O)N[C@@H](CCO)C2=CC=C(C=C2)Cl)N)C3=NC=NC4=C3C=CN4 [Capivasertib]; conditions: max 10 µM
Summary of the method: as §1

Olaparib = compound: O=C(c1cc(Cc2n[nH]c(=O)c3ccccc23)ccc1F)N1CCN(C(=O)C2CC2)CC1 [Olaparib]; conditions: max 10 µM
Summary of the method: as §1

Selumetinib = compound: Cn1cnc2c(F)c(Nc3ccc(Br)cc3Cl)c(C(=O)NOCCO)cc21 [Selumetinib]; conditions: max 10 µM
Summary of the method: as §1

Row | Cell Line | IC50, cell viability 72 h (SN-38) | IC50, cell viability 72 h (AZD1390) | IC50, cell viability 72 h (Taselisib) | IC50, cell viability 72 h (AZD0156) | IC50, cell viability 72 h (Dasatinib) | IC50, cell viability 72 h (AZD8186) | IC50, cell viability 72 h (AZD5153) | IC50, cell viability 72 h (Prexasertib) | IC50, cell viability 72 h (Alisertib) | IC50, cell viability 72 h (AZD5991) | IC50, cell viability 72 h (Lapatinib) | IC50, cell viability 72 h (SG3199) | IC50, cell viability 72 h (AZD1775) | IC50, cell viability 72 h (Palbociclib) | IC50, cell viability 72 h (Crizotinib) | IC50, cell viability 72 h (Gefitinib) | IC50, cell viability 72 h (Trametinib) | IC50, cell viability 72 h (Savolitinib) | IC50, cell viability 72 h (AZD4320) | IC50, cell viability 72 h (AZD7648) | IC50, cell viability 72 h (AZD2811) | IC50, cell viability 72 h (Venetoclax) | IC50, cell viability 72 h (MK-2206) | IC50, cell viability 72 h (AZD6738) | IC50, cell viability 72 h (Doxorubicin) | IC50, cell viability 72 h (Capivasertib) | IC50, cell viability 72 h (Olaparib) | IC50, cell viability 72 h (Selumetinib)
1 | NCI-H650 (Lung Adenocarcinoma) | 100 nM | > 300 nM | > 10 µM | > 3000 nM | > 2000 nM | > 3000 nM | > 1000 nM | 283 nM | > 10 µM | > 1000 nM | > 10 µM | > 1 nM | 2650 nM | > 10 µM | > 10 µM | > 10 µM | > 1000 nM | > 1000 nM | > 1000 nM | > 10 µM | > 1000 nM | > 1000 nM | > 10 µM | > 10 µM | > 1000 nM | > 10 µM | > 10 µM | > 10 µM
2 | NCI-H1092 (Small Cell Lung Carcinoma) | > 300 nM | > 300 nM | > 10 µM | > 3000 nM | > 2000 nM | > 3000 nM | > 1000 nM | 144 nM | > 10 µM | 819 nM | > 10 µM | > 1 nM | 2940 nM | > 10 µM | > 10 µM | > 10 µM | > 1000 nM | > 1000 nM | 152 nM | > 10 µM | > 1000 nM | > 1000 nM | > 10 µM | > 10 µM | > 1000 nM | > 10 µM | > 10 µM | > 10 µM
3 | NCI-H1838 (Lung Adenocarcinoma) | > 300 nM | > 300 nM | 5.86 µM | > 3000 nM | > 2000 nM | > 3000 nM | > 1000 nM | 212 nM | > 10 µM | > 1000 nM | > 10 µM | > 1 nM | 2440 nM | > 10 µM | > 10 µM | > 10 µM | > 1000 nM | > 1000 nM | > 1000 nM | > 10 µM | > 1000 nM | > 1000 nM | > 10 µM | > 10 µM | > 1000 nM | > 10 µM | > 10 µM | > 10 µM
4 | NCI-H2122 (Lung Adenocarcinoma) | 40.5 nM | > 300 nM | 0.373 µM | > 3000 nM | > 2000 nM | > 3000 nM | 115 nM | 29.1 nM | 0.065 µM | > 1000 nM | 6.23 µM | > 1 nM | 547 nM | 1.91 µM | 1.92 µM | 5.67 µM | 13.8 nM | > 1000 nM | > 1000 nM | > 10 µM | 347 nM | > 1000 nM |  | 1.14 µM | > 1000 nM | 4.95 µM | > 10 µM | 0.496 µM
5 | OACM5-1 (Esophageal Adenocarcinoma) | 46.4 nM | > 300 nM | 0.418 µM | > 3000 nM | > 2000 nM | > 3000 nM | 391 nM | 134 nM | 3.85 µM | 58.2 nM | 8.07 µM | > 1 nM | 2550 nM | 6.86 µM | 4.4 µM | > 10 µM | > 1000 nM | > 1000 nM | > 1000 nM | > 10 µM | > 1000 nM | > 1000 nM |  | 9.88 µM | 615 nM | 1.99 µM | > 10 µM | > 10 µM
